Reference: ChEMBL document CHEMBL4130590, “Mtb PKNA/PKNB Dual Inhibition Provides Selectivity Advantages for Inhibitor Design To Minimize Host Kinase Interactions” (ACS Med Chem Lett, 2017)
≈ marks a conversion by molar mass, not a printed value.

Columns and labels:
[1] = target: T1, Serine/threonine-protein kinase PknB (Mycobacterium tuberculosis, UniProt P9WI81); assay: Inhibition of Mycobacterium tuberculosis PknB (M1 to G279 residues) expressed in Escherichia coli BL21 (DE3) cells using [T-33P]ATP as substrate after 50 mins in presence of GarA by liquid scintillation method
T1 sequence (P9WI81 whole entry): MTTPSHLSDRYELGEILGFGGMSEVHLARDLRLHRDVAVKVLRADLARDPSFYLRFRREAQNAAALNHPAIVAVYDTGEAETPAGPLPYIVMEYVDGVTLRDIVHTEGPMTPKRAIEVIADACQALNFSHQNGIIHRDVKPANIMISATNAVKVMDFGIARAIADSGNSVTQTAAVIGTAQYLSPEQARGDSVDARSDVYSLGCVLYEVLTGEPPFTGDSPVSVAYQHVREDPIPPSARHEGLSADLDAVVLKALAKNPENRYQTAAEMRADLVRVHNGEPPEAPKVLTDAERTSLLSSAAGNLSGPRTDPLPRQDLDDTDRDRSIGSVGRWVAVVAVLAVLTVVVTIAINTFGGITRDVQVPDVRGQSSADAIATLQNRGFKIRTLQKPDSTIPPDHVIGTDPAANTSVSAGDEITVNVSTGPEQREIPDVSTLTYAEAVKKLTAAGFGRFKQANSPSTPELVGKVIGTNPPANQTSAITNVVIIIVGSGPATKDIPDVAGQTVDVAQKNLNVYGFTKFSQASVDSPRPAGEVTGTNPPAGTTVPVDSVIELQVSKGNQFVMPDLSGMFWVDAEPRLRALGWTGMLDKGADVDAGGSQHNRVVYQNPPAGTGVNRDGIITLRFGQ

[2] = target: T2, Serine/threonine-protein kinase PknA (Mycobacterium tuberculosis (strain ATCC 25618 / H37Rv), UniProt P9WI83); assay: Inhibition of Mycobacterium tuberculosis PknA (M1 to A296 residues) expressed in Escherichia coli BL21 (DE3) pLysS cells using [T-33P]ATP as substrate after 120 mins in presence of GarA by liquid scintillation method
T2 sequence (P9WI83 whole entry): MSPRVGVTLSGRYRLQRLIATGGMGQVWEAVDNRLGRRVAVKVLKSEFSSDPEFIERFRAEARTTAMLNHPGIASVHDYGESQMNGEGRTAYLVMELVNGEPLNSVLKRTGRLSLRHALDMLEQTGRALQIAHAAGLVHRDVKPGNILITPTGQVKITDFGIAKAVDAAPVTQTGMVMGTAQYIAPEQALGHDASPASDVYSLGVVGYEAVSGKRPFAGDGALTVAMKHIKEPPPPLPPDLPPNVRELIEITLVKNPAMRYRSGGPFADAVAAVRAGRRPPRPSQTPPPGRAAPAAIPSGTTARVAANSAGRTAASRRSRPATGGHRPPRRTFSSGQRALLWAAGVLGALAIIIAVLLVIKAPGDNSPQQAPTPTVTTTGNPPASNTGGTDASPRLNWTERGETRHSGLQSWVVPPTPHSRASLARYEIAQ

[3] = system: Mycobacterium tuberculosis; assay: Antibacterial activity against Mycobacterium tuberculosis H37Ra after […] by resazurin reduction assay; type: functional
CDK2/Cyclin A2 = CDK2/Cyclin A2 (Homo sapiens, UniProt P24941); assay: Inhibition of recombinant CDK2/cyclin A (unknown origin) using MAHHRSPRKRAKKK as substrate by pyruvate kinase-lactate dehydrogenase coupled assay; type: protein-complex assay
[4] = target: Glycogen synthase kinase-3 beta (Homo sapiens, UniProt P49841); assay: Inhibition of recombinant GSK3beta (unknown origin) using HSSPHQ(Sp)EDEEE as substrate by pyruvate kinase-lactate dehydrogenase coupled assay
Sequence of Glycogen synthase kinase-3 beta (P49841 whole entry): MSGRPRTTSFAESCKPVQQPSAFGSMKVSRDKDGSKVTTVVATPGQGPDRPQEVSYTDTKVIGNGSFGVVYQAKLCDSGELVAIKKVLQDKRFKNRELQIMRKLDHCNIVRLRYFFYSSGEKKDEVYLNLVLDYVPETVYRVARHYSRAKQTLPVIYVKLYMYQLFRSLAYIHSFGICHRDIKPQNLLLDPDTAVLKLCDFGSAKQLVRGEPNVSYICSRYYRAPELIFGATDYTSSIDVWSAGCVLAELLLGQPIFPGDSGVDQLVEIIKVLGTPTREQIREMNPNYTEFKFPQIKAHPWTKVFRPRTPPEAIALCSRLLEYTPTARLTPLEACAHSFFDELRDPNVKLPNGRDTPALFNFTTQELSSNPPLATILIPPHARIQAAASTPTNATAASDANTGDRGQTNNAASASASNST

[5] = target: Proto-oncogene tyrosine-protein kinase Src (Homo sapiens, UniProt P12931); assay: Inhibition of recombinant SRC (unknown origin) using polyE4Y as substrate by pyruvate kinase-lactate dehydrogenase coupled assay
Sequence of Proto-oncogene tyrosine-protein kinase Src (P12931 2-536 limits assumed): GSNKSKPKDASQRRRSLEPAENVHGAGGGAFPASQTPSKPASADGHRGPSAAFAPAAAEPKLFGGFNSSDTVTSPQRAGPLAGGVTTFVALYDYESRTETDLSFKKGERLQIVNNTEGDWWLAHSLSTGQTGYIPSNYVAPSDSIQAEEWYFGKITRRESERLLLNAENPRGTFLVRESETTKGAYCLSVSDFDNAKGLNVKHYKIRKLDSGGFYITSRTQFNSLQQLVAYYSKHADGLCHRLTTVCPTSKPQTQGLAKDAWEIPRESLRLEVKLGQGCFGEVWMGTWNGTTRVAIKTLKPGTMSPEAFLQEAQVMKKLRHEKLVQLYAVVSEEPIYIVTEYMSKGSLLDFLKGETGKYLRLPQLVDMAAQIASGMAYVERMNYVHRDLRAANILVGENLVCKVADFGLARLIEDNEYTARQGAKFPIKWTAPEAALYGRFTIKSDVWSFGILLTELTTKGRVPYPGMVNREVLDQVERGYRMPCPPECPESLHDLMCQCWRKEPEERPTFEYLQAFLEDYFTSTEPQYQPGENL

[6] = Selectivity ratio of Ki for recombinant CDK2/cyclin A (unknown origin) to Ki for Mycobacterium tuberculosis PknB (M1 to G279 residues)

Compound | Ki [1] [nM] | Ki [2] [nM] | also measured
CC(C)N1CCN(c2nc(Nc3cc(C4CC4)[nH]n3)c3cc(Cl)ccc3n2)CC1 | 1400 | – | –
NC(=O)Cc1ccc(-c2nc(Nc3cc(C4CC4)[nH]n3)c3cc(Cl)ccc3n2)cc1 | 23 | 1800 | –
Clc1ccc2nc(N3CCCCCC3)nc(Nc3cc(C4CC4)[nH]n3)c2c1 | 150 | > 33000 | MIC90 [3]: 33 µM (≈ 12.6 µg/mL)
Fc1ccc2nc(N3CCCCCC3)nc(Nc3cc(C4CC4)[nH]n3)c2c1 | 81 | > 33000 | –
Cc1cnc(-c2ccc(S(N)(=O)=O)s2)nc1Nc1cc(C2CC2)[nH]n1 | 4 | 18 | MIC90 [3]: 4.7 µM (≈ 1.77 µg/mL)
Cc1ccc2nc(N3CCCCCC3)nc(Nc3cc(C4CC4)[nH]n3)c2c1 | 98 | > 33000 | –
NS(=O)(=O)c1ccc(-c2nc(Nc3cc(C4CC4)[nH]n3)c3cc(Cl)ccc3n2)cc1 | 24 | 22 | –
N#Cc1cccc(-c2nc(Nc3cc(C4CC4)[nH]n3)c3ccccc3n2)c1 | 40 | – | Ki (CDK2/Cyclin A2): 11 nM; Ki [4]: 9 nM; Ki [5]: 22 nM
N#CCc1cccc(-c2nc(Nc3cc(C4CC4)[nH]n3)c3cc(Cl)ccc3n2)c1 | 38 | – | –
OCc1cccc(-c2nc(Nc3cc(C4CC4)[nH]n3)c3cc(Cl)ccc3n2)c1 | 23 | 2300 | –
NS(=O)(=O)c1cccc(-c2nc(Nc3cc(C4CC4)[nH]n3)c3cc(Cl)ccc3n2)c1 | 6 | < 8 | –
NS(=O)(=O)c1ccc(-c2nccc(Nc3cc(C4CC4)[nH]n3)n2)s1 | 4 | 18 | Ratio Ki [6]: 2; Ki (CDK2/Cyclin A2): 7 nM; MIC90 [3]: 4.2 µM (≈ 1.52 µg/mL)
CC(=O)N1CCCN(c2nc(Nc3cc(C4CC4)[nH]n3)c3cc(Cl)ccc3n2)CC1 | 150 | – | –
NS(=O)(=O)c1cccc(-c2ncc(Cl)c(Nc3cc(C4CC4)[nH]n3)n2)c1 | 17 | < 8 | MIC90 [3]: 8.3 µM (≈ 3.24 µg/mL)
Cc1cnc(-c2ccc(S(N)(=O)=O)s2)nc1Nc1cc(C2CC2)n(C)n1 | > 4000 | > 4000 | MIC90 [3]: > 100 µM
Clc1ccc2nc(N3CCNCC3)nc(Nc3cc(C4CC4)[nH]n3)c2c1 | 990 | – | –
NS(=O)(=O)c1ccc(-c2ncc(F)c(Nc3cc(C4CC4)[nH]n3)n2)s1 | < 1 | 12 | MIC90 [3]: 3.1 µM (≈ 1.18 µg/mL)
NC(=O)c1cccc(-c2nc(Nc3cc(C4CC4)[nH]n3)c3cc(Cl)ccc3n2)c1 | 15 | > 4000 | –

Compound | Ki [1] [nM] | Ki [2] [nM] | also measured
N#Cc1ccc(-c2nc(Nc3cc(C4CC4)[nH]n3)c3cc(Cl)ccc3n2)cc1 | 88 | > 4000 | Ki (CDK2/Cyclin A2): 170 nM; Ki [4]: 190 nM; Ki [5]: 710 nM
COc1ccc2nc(N3CCCCCC3)nc(Nc3cc(C4CC4)[nH]n3)c2c1 | 82 | > 33000 | –
O=C(c1ccccc1)N1CCN(c2nc(Nc3cc(C4CC4)[nH]n3)c3cc(Cl)ccc3n2)CC1 | 310 | – | –
NS(=O)(=O)c1ccc(-c2ncc(Cl)c(Nc3cc(C4CC4)[nH]n3)n2)cc1 | 13 | 2900 | MIC90 [3]: > 100 µM
CN1CCN(c2nc(Nc3cc(C4CC4)[nH]n3)c3cc(Cl)ccc3n2)CCC1=O | 310 | – | –
NC(=O)c1ccc(-c2nc(Nc3cc(C4CC4)[nH]n3)c3cc(Cl)ccc3n2)cc1 | 29 | > 4000 | –
Clc1ccc2nc(NC3CCC3)nc(Nc3cc(C4CC4)[nH]n3)c2c1 | 72 | – | –
Clc1ccc2nc(N3CCCNCC3)nc(Nc3cc(C4CC4)[nH]n3)c2c1 | 960 | – | –
NS(=O)(=O)c1ccc(-c2nc(Nc3cc(C4CC4)[nH]n3)c3cc(Cl)ccc3n2)s1 | < 1 | < 8 | –
Clc1ccc2nc(-c3ccccc3)nc(Nc3cc(C4CC4)[nH]n3)c2c1 | 60 to 69 | > 4000 | –
NS(=O)(=O)c1ccc(-c2ncc(Cl)c(Nc3cc(C4CC4)[nH]n3)n2)s1 | < 1.3 | 9 | Ratio Ki [6]: > 13; Ki (CDK2/Cyclin A2): 17 nM; MIC90 [3]: 6.25 µM (≈ 2.48 µg/mL)
Clc1ccc2nc(N3CCCOCC3)nc(Nc3cc(C4CC4)[nH]n3)c2c1 | 150 | – | –
N#CCc1ccc(-c2nc(Nc3cc(C4CC4)[nH]n3)c3cc(Cl)ccc3n2)cc1 | 5 | > 4000 | –
O=C1CCN(c2nc(Nc3cc(C4CC4)[nH]n3)c3cc(Cl)ccc3n2)CCN1 | 190 | – | –
N#Cc1cccc(-c2nc(Nc3cc(C4CC4)[nH]n3)c3cc(Cl)ccc3n2)c1 | 50 | > 4000 | Ki (CDK2/Cyclin A2): 750 nM; Ki [4]: > 4000 nM; Ki [5]: 200 nM
N#Cc1ccc(-c2nc(Nc3cc(C4CC4)[nH]n3)c3ccccc3n2)cc1 | 46 | – | Ki (CDK2/Cyclin A2): 140 nM; Ki [4]: 70 nM; Ki [5]: 18 nM
COC(=O)N1CCCN(c2nc(Nc3cc(C4CC4)[nH]n3)c3cc(Cl)ccc3n2)CC1 | 230 | – | –
